Measured values as given in US9730455B2, “Composition comprising a biological control agent and an insecticide” (Bayer CropScience AG, priority 2012, dated 2017).
Like-named read-outs stand apart in the source and are kept apart here.

Tests used:
Format in all cases: in vivo
[1] = tested on: green peach aphid (Myzus persicae); test: Myzus persicae - spray test; details: foliar, 24 h, after 1 d, Chinese cabbage leaf disks, read-out: Efficacy in % after 1^d (mortality)
Description: (§1) Formula for the efficacy of the combination of two compounds • The expected efficacy of a given combination of two compounds is calculated as follows (see Colby, S.R., “Calculating Synergistic and antagonistic Responses of Herbicide Combinations”, Weeds 15, pp. 20-22, 1967): • If • X is the efficacy expressed in % mortality of the untreated control for test compound A at a concentration of m ppm respectively m g/ha, • Y is the efficacy expressed in % mortality of the untreated control for test compound B at a concentration of n ppm respectively n g/ha, • E is the efficacy expressed in % mortality of the untreated control using the mixture of A and B at m and n ppm respectively m and n g/ha, • then is
(§2) • Solvent: 78.0 parts by weight acetone • 1.5 parts by weight dimethylformamide • Emulsifier: alkylaryl polyglycol ether
To produce a suitable preparation of active compound, 1 part by weight of active compound is mixed with the stated amount of solvents and is diluted with water, containing an emulsifier concentration of 1000 ppm, to the desired concentration. To produce a suitable preparation of a spore suspension the spores are diluted with emulsifier containing water to the desired concentration. […]
After the specified period of time, mortality in % is determined. […] The mortality values determined thus are recalculated using the Colby-formula (see sheet 1).

[2] = tested on: fall armyworm larvae (Spodoptera frugiperda); test: Spodoptera frugiperda - spray test; details: maize leaf sections; for mortality at 3.75 g/ha: 3.75 g ai/ha
Description: as §1, §2
(§3) To produce a suitable preparation of active compound, 1 part by weight of active compound is mixed with the stated amount of solvents and is diluted with water, containing an emulsifier concentration of 1000 ppm, to the desired concentration. To produce a suitable preparation of a spore suspension the spores are diluted with emulsifier containing water to the desired concentration. Further test concentrations are prepared by dilution with emulsifier containing water.
Maize (Zea mais) leaf sections are sprayed with a preparation of the active ingredient of the desired concentration. Once dry, the leaf sections are infested with fall armyworm larvae (Spodoptera frugiperda).
After the specified period of time, mortality in % is determined. 100% means all caterpillars have been killed and 0% means none of the caterpillars have been killed. The mortality values determined thus are recalculated using the Colby-formula (see sheet 1).

[3] = tested on: two spotted spidermite (Tetranychus urticae), OP-resistant; test: Tetranychus urticae - spray test, OP-resistant; details: French beans
Description: as §1, §2, §3
French beans (Phaseolus vulgaris) which are heavily infested with all stages of the two spotted spidermite (Tetranychus urticae), are sprayed with a preparation of the active ingredient of the desired concentration.
After the specified period of time, mortality in % is determined. 100% means all spider mites have been killed and 0% means none of the spider mites have been killed. The mortality values determined thus are recalculated using the Colby-formula (see sheet 1).

[4] = tested on: mustard beetle larvae (Phaedon cochleariae); test: Phaedon cochleariae - spray test; details: foliar; for mortality at 0.8 g/ha: 0.8 g ai/ha, after 6 d
Description: as §1
• Solvent: 78.0 parts by weight of acetone • 1.5 parts by weight of dimethylformamide • Emulsifier: alkylaryl polyglycol ether
as §3
Chinese cabbage (Brassica pekinensis) leaf-disks are sprayed with a preparation of the active ingredient of the desired concentration. Once dry, the leaf disks are infested with mustard beetle larvae (Phaedon cochleariae).
After the specified period of time, mortality in % is determined. 100% means all beetle larvae have been killed and 0% means none of the beetle larvae have been killed. The mortality values determined thus are recalculated using the Colby-formula (see sheet 1).

[5] = 144 h, Chinese cabbage leaf disks, read-out: Efficacy in % after 6^d (mortality)

CN1COCN(Cc2cnc(Cl)s2)/C1=N\[N+](=O)[O-] [Thiamethoxam]
mortality at 0.8 g/ha ([1]; 0.8 g ai/ha): 0%

Spinosad
Efficacy in % after 6^d (mortality) ([2]; 0.8 g ai/ha, after 6 d): 0%
Efficacy in % after 2^d (mortality) ([2]; 4 g ai/ha, after 2 d): 50%
Efficacy in % after 6^d (mortality) ([3]; 20 g ai/ha): 0%

Spinetoram
Efficacy in % after 6^d (mortality) ([2]; 0.032 g ai/ha, after 6 d): 0%
Efficacy in % after 2^d (mortality) ([2]; 0.08 g ai/ha, after 2 d): 67%
Efficacy in % after 6^d (mortality) ([3]; 0.08 g ai/ha): 0%
Efficacy in % after 2^d (mortality) ([3]; 0.4 g ai/ha, after 2 d): 0%

CN/C(=N\[N+](=O)[O-])NCc1cnc(Cl)s1 [Clothianidin]
mortality at 20 g/ha ([2]; Spodoptera frugiperda, 144 h, 20 g ai/ha, after 6 d, read-out: Efficacy in % after 6^d (mortality)): 0%

N#C/N=C1\SCCN1Cc1ccc(Cl)nc1 [Thiacloprid]
mortality at 4 g/ha ([1]; 4 g ai/ha): 0%
mortality at 20 g/ha ([3]; Tetranychus urticae, 48 h, 20 g ai/ha, after 2 d, read-out: Efficacy in % after 2^d (mortality)): 40%

CNC(=O)Oc1cc(C)c(SC)c(C)c1 [Methiocarb]
mortality at 10 g/ha ([4]; in Brassica rapa, 144 h, read-out: Efficacy in % after 6^d (mortality)): 50%

CNC(=O)c1cc(C#N)cc(C)c1NC(=O)c1cc(Br)nn1-c1ncccc1Cl [Cyantraniliprole]
mortality at 4 g/ha ([4]; 48 h, 4 g ai/ha, after 2 d, Chinese cabbage leaf disks, read-out: Efficacy in % after 2^d (mortality)): 0%
mortality at 0.8 g/ha [4, 5]: 0%

CS/C(C)=N\OC(=O)N(C)SN(C)C(=O)O/N=C(\C)SC [Thiodicarb]
mortality at 3.75 g/ha ([2]; Spodoptera frugiperda, 48 h, after 2 d, read-out: Efficacy in % after 2^d (mortality)): 0%
mortality at 7.5 g/ha ([2]; Spodoptera frugiperda, 48 h, 7.5 g ai/ha, after 2 d, read-out: Efficacy in % after 2^d (mortality)): 67%
mortality at 3.75 g/ha ([2]; Spodoptera frugiperda, 144 h, after 6 d, read-out: Efficacy in % after 6^d (mortality)): 0%

CNC(=O)c1cc(Cl)cc(C)c1NC(=O)c1cc(Br)nn1-c1ncccc1Cl [Chlorantraniliprole]
mortality at 0.8 g/ha [4, 5]: 33%
mortality at 0.8 g/ha ([2]; Spodoptera frugiperda, 48 h, 0.8 g ai/ha, after 2 d, read-out: Efficacy in % after 2^d (mortality)): 67%
mortality at 0.16 g/ha ([2]; Spodoptera frugiperda, 144 h, 0.16 g ai/ha, after 6 d, read-out: Efficacy in % after 6^d (mortality)): 0%
